What was measured:
[1] = Clinical study: logMAR visual acuity; type: in vivo, human; conditions: U group
Procedure: (§1) A prospective, randomized, placebo-controlled study was performed for forty-eight eyes with GA which had not a recurrence of exudative AND for at least 6 months after receiving the treatment for exudative AND. The eyes of the treatment group received two drops of 0.15% isopropyl unoprostone (IU) three times a day for 54 weeks. Participants were examined before starting the study (baseline) and at 4, 8, 12, 24, 36, and 54 weeks to measure GA area, the change in GA, the GA enlargement rate and the logarithm of the minimum angle of resolution (logMAR) visual acuity. The placebo group eyes received the vehicle 3 times a day.
(§2) Two drops of the test drug or the placebo (vehicle) were administered at 5 minute intervals to the eyes three times a day, i.e. morning, afternoon, and night.
(§3) Study duration: 54 weeks.
(§4) The participants were examined to measure the following items at enrollment (baseline) and at 4, 8, 12, 24, 36 and 54 weeks.
Visual acuity was examined and the obtained value was converted the logarithm of the minimum angle of resolution (LogMar) to give logMar visual acuity.

geographic atrophy (GA) = test: Clinical study: GA area by fundus autofluorescence imaging (RegionFinder); type: in vivo, human
Procedure: as §1, §2, §3, §4
Fundus autofluorescence images were obtained using BluePeak™ blue laser fundus autofluorescence (FAF) and confocal scanning laser ophthalmoscopy reflectance (OSLO). Hypofluorescent areas that reflect decreased autofluorescence were defined as GA areas. In detail, digital images obtained as above were calibrated and analyzed using RegionFinder™ software (version 2.4, Heidelberg Engineering, Germany) to define and quantify GA areas. Obtaining the fundus autofluorescence images, analyzing the obtained images and defining GA areas were performed according to the manuals of the equipment and software.
At each measurement time, the GA size, the change in GA area from the baseline and the GA enlargement rate from the baseline were determined.

CCCCCCCC(=O)CC[C@@H]1[C@@H](C/C=C\CCCC(=O)OC(C)C)[C@@H](O)C[C@H]1O [isopropyl unoprostone, 13,14-dihydro-15-keto-20-ethyl F2α isopropyl ester]
logMAR visual acuity, trend over time ([1]; over the study, no statistically significant difference over the baseline): tended to improve over time
logMAR visual acuity at week 4 ([1]; week 4, baseline 0.39±0.39, p=0.62 vs P group): 0.33±0.34
logMAR visual acuity at week 54 ([1]; week 54, baseline 0.39±0.39, p=0.27 vs P group): 0.37±0.34
mean change in GA area at week 54 (geographic atrophy (GA); U group (24 eyes), 0.15% eye drops two drops three times a day, 54 weeks, change from baseline (baseline 2.71±2.03 mm^2), p<0.001 vs placebo): 0.44±0.39 mm^2
enlargement of GA (conclusion) (geographic atrophy (GA); eye drops, 54 weeks, vs placebo): could suppress the enlargement of GA
change in geographic atrophy (GA) area (conclusion) (geographic atrophy (GA); patients who developed GA after treatment for exudative AMD, eye drops): statistically significant suppression
GA enlargement rate at 54 week (geographic atrophy (GA); representative U group case, person with typical AMD, left eye, 0.15% eye drops, two drops three times a day, vs baseline): 118%
GA area, difference between U and P groups (geographic atrophy (GA); throughout the study): no statistically significant difference

— patent US20170042908A1, “METHOD FOR TREATING GEOGRAPHIC ATROPHY ASSOCIATED WITH AGE-RELATED MACULAR DEGENERATION” (NATIONAL UNIVERSITY CORPORATION KAGAWA UNIVERSITY, priority 2014, published 2017)
